Test results reported in patent EP4772514A1, “MACROCYCLIC COMPOUNDS, PREPARATION METHOD THEREFOR, AND USE THEREOF” (Genfleet Therapeutics (Shanghai) Inc., priority 2023, dated 2025).
Like-named read-outs stand apart in the source and are kept apart here.

Assays:
[1] = tested on: p-ERK; test: Cell p-ERK assay (HTRF, Advance ERK phospho-T202/Y204 kit) in NCI-H441 cells; format: cell-based; settings: NCI-H441, human non-small cell lung cancer cell strain, KRAS G12V mutation, 3 h compound incubation
Experimental: AsPC-1 cells were purchased from ATCC, Cat. No. CRL-1682; NCI-H441 cells were purchased from ATCC, Cat. No. HTB-174; RPMI-1640 medium was purchased from Gibco, Cat. No. 11875-093; FBS was purchased from Gibco, Cat. No. 10099-141C; penicillin/streptomycin double-antibiotic solution (PS) was purchased from Gibco, Cat. No. 15140-122; trypsin (containing EDTA) was purchased from Gibco, Cat. No. 25200-072; DMSO was purchased from VWRAMRESCO, Cat. No. 0231-500ML; 96-well cell culture plates were purchased from Corning, Cat. No. 3599; white-bottomed, opaque 96-well plates were purchased from Cisbio, Cat. No. 66PL96025; Advance ERK phospho-T202/Y204 kit was purchased from Cisbio, Cat. No. 64AERPEH; cell counter was purchased from CHEMOMETEC, model: NC-200; microplate reader was purchased from PerkinElmer, model: EnVision.
AsPC-1, a human pancreatic cancer cell strain endogenously containing a KRAS^G12D mutation, was cultured in a complete medium containing RPMI-1640 + 10% FBS + 1% PS. NCI-H441, a human non-small cell lung cancer cell strain endogenously containing a KRAS^G12V mutation, was cultured in a complete medium containing RPMI-1640 + 10% FBS + 1% PS.
The cells were digested with trypsin (containing EDTA), collected in their corresponding complete media, and counted. The density of the cell suspensions was adjusted with their corresponding complete media, and AsPC-1 cells (10000 cells/well) or NCI-H441 cells (20000 cells/well) were seeded into a 96-well cell culture plate, with the volume of the medium in each well being 80 µL. The cell culture plate was incubated in an incubator at 37 °C with 5% CO2 overnight. A series of 3.16-fold gradient dilutions of a 1000× compound stock solution were prepared with DMSO, and then diluted 200-fold with the complete medium described above to give 5× compound stock solutions. On the day after cell seeding, 20 µL of the 5× compound stock solution was added to each cell culture well. As a result, the final concentration of the compound in the cell culture well became 1×, and the DMSO content in the well was 0.1%. In addition to the compound-treated wells described above, cell-containing DMSO control wells were also set. A complete medium containing 0.5% DMSO was added at 20 µL/well. After the mixture was well mixed, the culture plate was incubated in the incubator at 37 °C with 5% CO2 for another 3 h. The medium was then removed from the culture wells, and 50 µL of cell lysis buffer (from Advance ERK phospho-T202/Y204 kit) was added to each well. The mixture was well mixed, incubated for 30 min, and then transferred to a white-bottomed, opaque 96-well assay plate at 16 µL/well, and separately, 16 µL of cell lysis buffer was added to additional wells (serving as blank wells) in the assay plate. After the transfer was completed, 4 µL of p-ERK HTRF antibody mixture (from Advance ERK phospho-T202/Y204 kit) was added to each well of the assay plate, followed by a 4-hour incubation. The HTRF signal values (RLU) were then measured using a microplate reader, and the inhibition rate of the compound against p-ERK levels was calculated as follows: IR(%) = (RLUDMSO - RLUcompound)/(RLUDMSO - RLUblank) × 100%, where RLUDMSO is the average HTRF signal value from the DMSO control well samples, RLU is the average HTRF signal value from the blank well samples, and RLUcompound is the HTRF signal value from the compound-treated well samples. Using an XLfit software, the IR(%) values were plotted against the logarithm of the compound concentrations, and the dose-response curves were fitted using the four-parameter method to calculate the IC50 values.

[2] = tested on: NCI-H441 cells; test: 3D cell proliferation assay (CellTiter Glo-3D) in NCI-H441 cells; format: cell-based; settings: NCI-H441, human lung cancer cell strain, KRAS G12V mutation, 3D culture, 2% FBS, 5 days, read-out: H441 AP IC50
Description: MIA PaCa-2 cells were purchased from ATCC, Cat. No. CRL-1420; AsPC-1 cells were purchased from ATCC, Cat. No. CRL-1682; NCI-H441 cells were purchased from ATCC, Cat. No. HTB-174; NCI-H1975 cells were purchased from ATCC, Cat. No. CRL-5908; DMEM medium was purchased from Gibco, Cat. No. 11995-065; RPMI-1640 medium was purchased from Gibco, Cat. No. 11875-093; FBS was purchased from Gibco, Cat. No. 10099-141C; penicillin/streptomycin double-antibiotic solution (PS) was purchased from Gibco, Cat. No. 15140-122; Horse serum was purchased from Gibco, Cat. No. 16050130; trypsin (containing EDTA) was purchased from Gibco, Cat. No. 25200-072; DMSO was purchased from VWRAMRESCO, Cat. No. 0231-500ML; 384-well cell culture plates were purchased from Corning, Cat. No. 3830; white-bottomed, opaque 384-well assay plates were purchased from Corning, Cat. No. 3570; CellTiter Glo-3D kit was purchased from Promega, Cat. No. G9683; cell counter was purchased from CHEMOMETEC, model: NC-200; microplate reader was purchased from PerkinElmer, model: EnVision.
MIA PaCa-2, a human pancreatic cancer cell strain endogenously containing a KRAS^G12Cmutation, was cultured in a complete medium containing DMEM + 10% FBS + 2.5% Horse serum + 1% PS. AsPC-1, a human pancreatic cancer cell strain endogenously containing a KRAS^G12D mutation, was cultured in a complete medium containing RPMI-1640 + 10% FBS + 1% PS. NCI-H441 cells, a human lung cancer cell strain endogenously containing a KRAS^G12V mutation, were cultured in a complete medium containing RPMI-1640 + 10% FBS + 1% PS. NCI-H1975, a KRAS wild-type human lung cancer cell strain whose cell proliferation […], was cultured in a complete medium containing RPMI-1640 + 10% FBS + 1% PS.
The cells were digested with trypsin (containing EDTA), collected in their respective low-serum complete media containing 2% FBS (for MIA Paca-2 cell culture: DMEM + 2% FBS + 0.5% Horse serum + 1% PS), and counted. After the cell density was adjusted as required, MIA PaCa-2 cells (200 cells/well), AsPC-1 cells (800 cells/well), NCI-H441 cells (800 cells/well), or NCI-H1975 cells (400 cells/well) were seeded into a 384-well cell culture plate, with the volume of the medium in each well being 45 µL. The cell culture plate was incubated in an incubator at 37 °C with 5% CO2 overnight. A series of 3.16-fold gradient dilutions of a 1000× compound stock solution were prepared with DMSO, and then diluted 100-fold with the complete medium containing 2% FBS described above to give 10× compound stock solutions. On the day after cell seeding, 5 µL of the 10× compound stock solution was added to each cell culture well. As a result, the final concentration of the compound in the cell culture well became 1×, and the DMSO content in the well was 0.1%. In addition to the compound-treated wells described above, cell-containing DMSO control wells (with 5 µL of the complete medium containing 1% DMSO added to each well) and cell-free medium control wells (containing 50 µL of the complete medium with 2% FBS) were also set. The culture plate was incubated in an incubator at 37 °C with 5% CO2 for another 5 days, and then 30 µL of CellTiter-Glo working solution was added to each well. The mixture was well mixed, incubated for 30 min, left to stand at room temperature for 30 min, and then transferred to a white-bottomed, opaque 384-well assay plate at 40 µL/well. The chemiluminescence values (RLU) were measured using a microplate reader, and the cell proliferation inhibition rate for each well was calculated: IR(%) = (RLUDMSO - RLUcompound)/(RLUDMSO - RLUblank) × 100%, where RLUDMSO is the average RLU signal value from the DMSO control well samples, RLUblank is the average RLU signal value from the medium control well samples, and RLUcompound is the RLU signal value from the compound-treated well samples. […]

IC50 ([1]; Homo sapiens, NCI-H441, 3 h)	IC50 ([2]; Homo sapiens, NCI-H441, 120 h)	Structure (SMILES)	IC50 [2]	IC50 [1]
3.97 nM	18.9 nM	CCn1nc2c(c1-c1cc(C#CCN3CCS(=O)(=O)CC3)cnc1[C@H](C)OC)CC(C)(C)COC(=O)[C@@H]1CCCN(N1)C(=O)[C@@H](NC(=O)[C@H](C(C)C)N(C)c1ccc3ncn(C)c3c1)Cc1nc(cs1)/C=C/2 (atropisomer, axis not shown; (Ra)) [Compound Z115, (2S)-N-((4^2Z,8^3S,2E,6S)-1^5-(Ra)-(5-(3-(1,1-dioxidothiomorpholino)prop-1-yn-1-yl)-2-((S)-1-methoxyethyl)pyridin-3-yl)-1^1-ethyl-12,12-dimethyl-7,9-dioxo-8^1,8^2,8^3,8^4,8^5,8^6-hexahydro-1^1H-10-oxa-4(4,2)-thiazola-8(1,3)-pyridazina-1(3,4)-pyrazolocyclotridec-2-en-6-yl)-3-methyl-2-(methyl(1-methyl-1H-benzo[d]imidazol-6-yl)amino)butanamide]		
115 nM	386 nM	CCn1nc2c(c1-c1cc(C#CCN3CCS(=O)(=O)CC3)cnc1[C@H](C)OC)CC(C)(C)COC(=O)[C@@H]1CCCN(N1)C(=O)[C@@H](NC(=O)[C@H](C(C)C)N1CCC(C)C1=O)Cc1nc(cs1)/C=C/2 (atropisomer, axis not shown; (Ra)) [Compound Z116, (2S)-N-((4^2Z,8^3S,2E,6S)-(Ra)-1^5-(5-(3-(1,1-dioxothiomorpholinyl)prop-1-yn-1-yl)-2-((S)-1-methoxyethyl)pyridin-3-yl)-1^1-ethyl-12,12-dimethyl-7,9-dioxo-8^1,8^2,8^1,8^4,8^5,8^6-hexahydro-1^1H-10-oxo-4 (4,2)-thiazola-8(1,3)-pyridazina-1(3,4)-pyrrolacyclotridecaphan-2-en-6-yl)-3-methyl-2-(3-methyl-2-oxopyrrolidin-1-yl)butanamide]		
3.92 nM	7.19 nM	CCn1c(OC)c2c(c1-c1cc(C#CCN3CCS(=O)(=O)CC3)cnc1[C@H](C)OC)CC(C)(C)COC(=O)[C@@H]1CCCN(N1)C(=O)[C@@H](NC(=O)[C@H]1[C@H](C)[C@@H]1C)Cc1nc(cs1)/C=C/2 (atropisomer, axis not shown; (Ra)) [Compound Z191, (1r,2R,3S)-N-((4^2Z,8^3S,2E,6S)-(Ra)-1^5-(5-(3-(1,1-dioxidothiomorpholino)prop-1-yn-1-yl)-2-((S)-1-methoxyethyl)pyridin-3-yl)-1^1-ethyl-1^2-methoxy-12,12-dimethyl-7,9-dioxo-8^1,8^2,8^3,8^4,8^5,8^6-hexahydro-1^1H-10-oxa-4(4,2)-thiazola-8(1,3)-pyridazina-1(3,4)-pyrrolacyclotridecaphan-2-en-6-yl)-2,3-dimethylcyclopropane-1-carboxamide]		
239 nM	374 nM	CCn1c(-c2cc(N3CCN(C)CC3)cnc2[C@H](C)OC)c2c3cc(ccc31)NC(=O)OC[C@H](NC(=O)[C@H]1[C@H](C)[C@@H]1C)C(=O)N1CCC[C@H](N1)C(=O)OCC(C)(C)C2 (single isomer, unassigned) [Compound Z2-1]		
		CCn1nc2c(c1-c1cc(C#CCN3CCS(=O)(=O)CC3)cnc1C(C)OC)CC(C)(C)COC(=O)C1CCCN(N1)C(=O)C(NC(=O)C(C)Cc1ccnc(NC)c1)Cc1nc(cs1)C=C2 (single isomer, unassigned) [Compound Z52-2]	25 nM	32 nM
150 nM	240 nM	CCn1nc2c(c1-c1cc(C#CCN3CCS(=O)(=O)CC3)cnc1C(C)OC)CC(C)(C)COC(=O)C1CCCN(N1)C(=O)C(NC(=O)C(C(C)C)N(C)C(=O)Cn1ccc3ccccc31)Cc1nc(cs1)C=C2 (single isomer, unassigned) [Compound Z54-1]		

Structure (SMILES)	IC50 ([1]; Homo sapiens, NCI-H441, 3 h)	IC50 ([2]; Homo sapiens, NCI-H441, 120 h)	IC50 [2]	IC50 [1]
CCn1nc2c(c1-c1cc(C#CCN3CCS(=O)(=O)CC3)cnc1C(C)OC)CC(C)(C)COC(=O)C1CCCN(N1)C(=O)C(NC(=O)C(C)Cc1ccnc(NC)c1)Cc1nc(cs1)C=C2 (single isomer, unassigned) [Compound Z52-1]	52.3 nM		76.5 nM	
